{"source": "patent US20140248373A1", "about": "“ENHANCED PERFORMANCE HYDROGEN PEROXIDE FORMULATIONS COMPRISING PROTEINS AND SURFACTANTS” (Advanced BioCatalytics Corporation, priority 2008, published 2014)", "key": {"[1]": {"experiment": "Oxidation-reduction potential by Square Wave Voltammetry (SWVA)", "type": "physicochemical", "settings": "for Wave Height, I, mA / E, mV vs. Ag/AgCl: SWVA; for E, mV vs. Ag/AgCl: absence of atmospheric oxygen", "procedure": "The compatibility of H2O2 and the protein/surfactant system was assessed using two approaches. […] Second, H2O2 concentration was determined over various time periods, up to one year, in the mixtures of hydrogen peroxide and protein/surfactant mixture, by volumetric titration with standardized permanganate solution. ORP measurements were conducted using Square Wave Voltammetry (SWVA) in a glove box, in the absence of atmospheric oxygen. Solutions 27% and 15% H2O2 with and without addition of 5% protein/surfactant were taken for these experiments."}, "E. Coli": {"test_system": "E. Coli", "settings": "for E. Coli Sample (CFU/mL): 5% Horse serum", "procedure": "(§1) The following tests were run with PS-2 at a 4% concentration (0.72% total surfactant), H2O2 at 3% and phosphoric acid at <0.1% to pH 2.9, Versene (EDTA) at 0.1%. Test methodology was Suspension Based, Quantitative Time-Kill at 22° C., but with 5% Horse serum added to show the effects of organic contaminant on antimicrobial activity. A control of 3% H2O2 was run in this example."}, "S. aureus": {"test_system": "S. aureus", "settings": "for S. aureus Sample (CFU/mL): 5% Horse serum", "procedure": "as §1"}, "[2]": {"settings": "exposure time of up to 10 minutes, organic contamination"}}, "note": "Where two headings read alike, the source gives them in different places."}
{"molecule": "OO", "note": "[Composition H2O2, hydrogen peroxide]", "values": [{"measurement": "Potential (apex of current wave)", "setting": "[1]; NHE", "result": "about 1.8 V"}, {"measurement": "Potential (apex of current wave)", "setting": "[1]; against saturated silver/silver chloride electrode", "result": "about 1.6 V"}]}
{"molecule": "OO", "note": "[Control, 3% H2O2, hydrogen peroxide]", "values": [{"measurement": "E. Coli Sample (CFU/mL)", "setting": "E. Coli; 1 min", "result": "1.71E+07", "unit": "CFU/mL"}, {"measurement": "E. Coli Sample (CFU/mL)", "setting": "E. Coli; 5 min", "result": "6.80E+06", "unit": "CFU/mL"}, {"measurement": "E. Coli Sample (CFU/mL)", "setting": "E. Coli; 10 min", "result": "1.36E+06", "unit": "CFU/mL"}, {"measurement": "E. Coli Sample (CFU/mL)", "setting": "E. Coli; \"Time Zero\"", "result": "1.99E+07", "unit": "CFU/mL"}, {"measurement": "log reduction, gram negative pathogen (E. Coli)", "setting": "E. Coli; [2]", "result": 1, "unit": "log"}, {"measurement": "S. aureus Sample (CFU/mL)", "setting": "S. aureus; 1 min", "result": "1.20E+07", "unit": "CFU/mL"}, {"measurement": "S. aureus Sample (CFU/mL)", "setting": "S. aureus; 5 min", "result": "8.80E+06", "unit": "CFU/mL"}, {"measurement": "S. aureus Sample (CFU/mL)", "setting": "S. aureus; 10 min", "result": "3.86E+06", "unit": "CFU/mL"}, {"measurement": "S. aureus Sample (CFU/mL)", "setting": "S. aureus; \"Time Zero\"", "result": "1.04E+07", "unit": "CFU/mL"}, {"measurement": "log reduction, gram positive pathogen (S. aureus)", "setting": "S. aureus; [2]", "result": 1, "unit": "log"}]}
{"molecule": "OO", "note": "[H2O2, 15%, hydrogen peroxide]", "values": [{"measurement": "Wave Height, I, mA", "setting": "[1]", "result": 85, "unit": "mA"}, {"measurement": "E, mV vs. Ag/AgCl", "setting": "[1]", "result": "1,550 mV"}]}
{"molecule": "OO", "note": "[H2O2, 27%, hydrogen peroxide]", "values": [{"measurement": "Wave Height, I, mA", "setting": "[1]", "result": 92, "unit": "mA"}, {"measurement": "E, mV vs. Ag/AgCl", "setting": "[1]", "result": "1,600 mV"}, {"measurement": "Wave Height, I, mA", "setting": "[1]; listed as pure H2O2", "result": "about 92 mA"}]}
